# PubChem BioAssay AID256 (DTP/NCI, 2004)
# Several values for one entry are separate records, joined by “and”; a condition that tells them apart may be missing. Equal entries are not always repeated. Toxic doses and inconclusive results are not listed.
# Tested on: CD2F1 mice, L1210 leukemia ip, survival T/C
# Assay: NCI In Vivo Anticancer Drug Screen. Data for tumor model L1210 Leukemia (intraperitoneal) in CD2F1 (CDF1) mice
# Conditions: higher = longer survival
# Outline: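 Each value reflects a quotient of treated over vehicle control outcomes in mice with a transplanted tumor.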
smiles,measurement,setting,value
O=C1NC(=O)C2C3C=CC(C12)C1C2C(=O)NC(=O)C2C31 (stereo not drawn),T/C,"endpoint: mean survival time, dose: 12.5 mg/kg/injection, schedule: Q01DX009 (ip), vehicle: saline with Tween-80",115 % of control
same,T/C,"endpoint: mean survival time, dose: 12.5 mg/kg/injection, schedule: Q01DX009 (oral), vehicle: saline with Tween-80",100 % of control
same,T/C,"endpoint: mean survival time, dose: 25.0 mg/kg/injection, schedule: Q01DX009 (oral), vehicle: saline with Tween-80",96 % of control
same,T/C,"endpoint: mean survival time, dose: 50.0 mg/kg/injection, schedule: Q01DX009 (ip), vehicle: saline with Tween-80",164 % of control
same,T/C,"endpoint: mean survival time, dose: 50.0 mg/kg/injection, schedule: Q01DX009 (oral), vehicle: saline with Tween-80",101 % of control
same,T/C,"endpoint: mean survival time, dose: 100.0 mg/kg/injection, schedule: Q01DX009 (ip), vehicle: saline with Tween-80",188 % of control
same,T/C,"endpoint: mean survival time, dose: 100.0 mg/kg/injection, schedule: Q01DX009 (oral), vehicle: saline with Tween-80",104 % of control
same,T/C,"endpoint: mean survival time, dose: 200.0 mg/kg/injection, schedule: Q01DX009 (oral), vehicle: saline with Tween-80",101 % of control
same,T/C,"endpoint: mean survival time, dose: 400.0 mg/kg/injection, schedule: Q01DX009 (oral), vehicle: saline with Tween-80",111 % of control
same,T/C,"endpoint: median survival time, dose: 2.6 mg/kg/injection, schedule: Q03HX024 (ip), vehicle: clinical formulation",110 % of control
same,T/C,"endpoint: median survival time, dose: 3.12 mg/kg/injection, schedule: Q01DX009 (ip), vehicle: clinical formulation",106 % of control
same,T/C,"endpoint: median survival time, dose: 3.12 mg/kg/injection, schedule: Q01DX009 (ip), vehicle: saline with Tween-80",108 % of control
same,T/C,"endpoint: median survival time, dose: 6.0 mg/kg/injection, schedule: Q03HX027 (ip), vehicle: saline",112 % of control
same,T/C,"endpoint: median survival time, dose: 6.25 mg/kg/injection, schedule: Q01DX009 (ip), vehicle: clinical formulation",108 % of control
same,T/C,"endpoint: median survival time, dose: 6.9 mg/kg/injection, schedule: Q01DX009 (ip), vehicle: clinical formulation",102 % of control
same,T/C,"endpoint: median survival time, dose: 7.8 mg/kg/injection, schedule: Q03HX008 (ip), vehicle: clinical formulation",162 % of control
same,T/C,"endpoint: median survival time, dose: 10.4 mg/kg/injection, schedule: Q03HX024 (ip), vehicle: clinical formulation",162 % of control
same,T/C,"endpoint: median survival time, dose: 11.8 mg/kg/injection, schedule: Q01DX009 (ip), vehicle: water",108 % of control
same,T/C,"endpoint: median survival time, dose: 12.5 mg/kg/injection, schedule: Q01DX005 (ip), vehicle: clinical formulation",100 % of control
same,T/C,"endpoint: median survival time, dose: 12.5 mg/kg/injection, schedule: Q01DX005 (ip), vehicle: other",101 % of control and 106 % of control
same,T/C,"endpoint: median survival time, dose: 12.5 mg/kg/injection, schedule: Q01DX005 (iv), vehicle: clinical formulation",108 % of control
same,T/C,"endpoint: median survival time, dose: 12.5 mg/kg/injection, schedule: Q01DX005 (iv), vehicle: other",103 % of control and 104 % of control
same,T/C,"endpoint: median survival time, dose: 12.5 mg/kg/injection, schedule: Q01DX009 (ip), vehicle: clinical formulation",112 % of control
same,T/C,"endpoint: median survival time, dose: 12.5 mg/kg/injection, schedule: Q01DX009 (ip), vehicle: saline with Tween-80",116 % of control
same,T/C,"endpoint: median survival time, dose: 12.5 mg/kg/injection, schedule: Q01DX009 (oral), vehicle: other",100 % of control
same,T/C,"endpoint: median survival time, dose: 13.8 mg/kg/injection, schedule: Q01DX009 (ip), vehicle: clinical formulation",101 % of control
same,T/C,"endpoint: median survival time, dose: 14.0 mg/kg/injection, schedule: Q01DX009 (ip), vehicle: water",117 % of control
same,T/C,"endpoint: median survival time, dose: 16.7 mg/kg/injection, schedule: Q03HX027 (ip), vehicle: saline",152 % of control
same,T/C,"endpoint: median survival time, dose: 18.0 mg/kg/injection, schedule: Q01DX009 (ip), vehicle: clinical formulation",110 % of control
same,T/C,"endpoint: median survival time, dose: 18.0 mg/kg/injection, schedule: Q01DX009 (ip), vehicle: saline",103 % of control
same,T/C,"endpoint: median survival time, dose: 18.0 mg/kg/injection, schedule: Q01DX009 (ip), vehicle: water",113 % of control
same,T/C,"endpoint: median survival time, dose: 19.7 mg/kg/injection, schedule: Q01DX009 (ip), vehicle: water",107 % of control
same,T/C,"endpoint: median survival time, dose: 20.8 mg/kg/injection, schedule: Q03HX024 (ip), vehicle: clinical formulation",114 % of control
same,T/C,"endpoint: median survival time, dose: 20.8 mg/kg/injection, schedule: Q04DX003 (ip), vehicle: clinical formulation",121 % of control
same,T/C,"endpoint: median survival time, dose: 23.3 mg/kg/injection, schedule: Q01DX009 (ip), vehicle: water",150 % of control
same,T/C,"endpoint: median survival time, dose: 25.0 mg/kg/injection, schedule: Q01DX001 (iv), vehicle: other",100 % of control
same,T/C,"endpoint: median survival time, dose: 25.0 mg/kg/injection, schedule: Q01DX005 (ip), vehicle: clinical formulation",114 % of control
same,T/C,"endpoint: median survival time, dose: 25.0 mg/kg/injection, schedule: Q01DX005 (ip), vehicle: other",108 % of control
same,T/C,"endpoint: median survival time, dose: 25.0 mg/kg/injection, schedule: Q01DX005 (iv), vehicle: other",101 % of control and 109 % of control
same,T/C,"endpoint: median survival time, dose: 25.0 mg/kg/injection, schedule: Q01DX005 (oral), vehicle: other",98 % of control
same,T/C,"endpoint: median survival time, dose: 25.0 mg/kg/injection, schedule: Q01DX009 (ip), vehicle: clinical formulation",122 % of control
same,T/C,"endpoint: median survival time, dose: 25.0 mg/kg/injection, schedule: Q01DX009 (oral), vehicle: other",98 % of control
same,T/C,"endpoint: median survival time, dose: 27.7 mg/kg/injection, schedule: Q01DX009 (ip), vehicle: clinical formulation",154 % of control
same,T/C,"endpoint: median survival time, dose: 27.8 mg/kg/injection, schedule: Q03HX027 (ip), vehicle: saline",183 % of control
same,T/C,"endpoint: median survival time, dose: 30.0 mg/kg/injection, schedule: Q01DX009 (ip), vehicle: clinical formulation",166 % of control
same,T/C,"endpoint: median survival time, dose: 30.0 mg/kg/injection, schedule: Q01DX009 (ip), vehicle: water",186 % of control
same,T/C,"endpoint: median survival time, dose: 32.9 mg/kg/injection, schedule: Q01DX009 (ip), vehicle: water",226 % of control
same,T/C,"endpoint: median survival time, dose: 38.9 mg/kg/injection, schedule: Q01DX009 (ip), vehicle: water",200 % of control
same,T/C,"endpoint: median survival time, dose: 46.3 mg/kg/injection, schedule: Q03HX027 (ip), vehicle: saline",88 % of control
same,T/C,"endpoint: median survival time, dose: 50.0 mg/kg/injection, schedule: Q01DX001 (iv), vehicle: other",106 % of control
same,T/C,"endpoint: median survival time, dose: 50.0 mg/kg/injection, schedule: Q01DX001 (oral), vehicle: other",100 % of control
same,T/C,"endpoint: median survival time, dose: 50.0 mg/kg/injection, schedule: Q01DX005 (ip), vehicle: clinical formulation",198 % of control
same,T/C,"endpoint: median survival time, dose: 50.0 mg/kg/injection, schedule: Q01DX005 (iv), vehicle: clinical formulation",174 % of control
same,T/C,"endpoint: median survival time, dose: 50.0 mg/kg/injection, schedule: Q01DX005 (iv), vehicle: other",185 % of control
same,T/C,"endpoint: median survival time, dose: 50.0 mg/kg/injection, schedule: Q01DX005 (oral), vehicle: other",101 % of control
same,T/C,"endpoint: median survival time, dose: 50.0 mg/kg/injection, schedule: Q01DX009 (ip), vehicle: clinical formulation",176 % of control and 203 % of control
same,T/C,"endpoint: median survival time, dose: 50.0 mg/kg/injection, schedule: Q01DX009 (ip), vehicle: saline with Tween-80",246 % of control
same,T/C,"endpoint: median survival time, dose: 50.0 mg/kg/injection, schedule: Q01DX009 (ip), vehicle: saline",160 % of control
same,T/C,"endpoint: median survival time, dose: 50.0 mg/kg/injection, schedule: Q01DX009 (ip), vehicle: water",256 % of control
same,T/C,"endpoint: median survival time, dose: 50.0 mg/kg/injection, schedule: Q01DX009 (oral), vehicle: other",109 % of control
same,T/C,"endpoint: median survival time, dose: 54.8 mg/kg/injection, schedule: Q01DX009 (ip), vehicle: water",119 % of control
same,T/C,"endpoint: median survival time, dose: 55.5 mg/kg/injection, schedule: Q01DX009 (ip), vehicle: clinical formulation",284 % of control
same,T/C,"endpoint: median survival time, dose: 55.5 mg/kg/injection, schedule: Q01DX009 (oral), vehicle: clinical formulation",108 % of control
same,T/C,"endpoint: median survival time, dose: 62.5 mg/kg/injection, schedule: Q01DX001 (iv), vehicle: clinical formulation",151 % of control
same,T/C,"endpoint: median survival time, dose: 64.8 mg/kg/injection, schedule: Q01DX009 (ip), vehicle: water",268 % of control
same,T/C,"endpoint: median survival time, dose: 83.3 mg/kg/injection, schedule: Q01DX009 (ip), vehicle: clinical formulation",112 % of control
same,T/C,"endpoint: median survival time, dose: 83.3 mg/kg/injection, schedule: Q01DX009 (ip), vehicle: saline",106 % of control
same,T/C,"endpoint: median survival time, dose: 83.3 mg/kg/injection, schedule: Q01DX009 (ip), vehicle: water",97 % of control
same,T/C,"endpoint: median survival time, dose: 83.3 mg/kg/injection, schedule: Q04DX003 (ip), vehicle: clinical formulation",182 % of control
same,T/C,"endpoint: median survival time, dose: 100.0 mg/kg/injection, schedule: Q01DX001 (iv), vehicle: other",104 % of control
same,T/C,"endpoint: median survival time, dose: 100.0 mg/kg/injection, schedule: Q01DX001 (oral), vehicle: other",98 % of control
same,T/C,"endpoint: median survival time, dose: 100.0 mg/kg/injection, schedule: Q01DX005 (iv), vehicle: other",150 % of control and 195 % of control
same,T/C,"endpoint: median survival time, dose: 100.0 mg/kg/injection, schedule: Q01DX005 (oral), vehicle: other",100 % of control
same,T/C,"endpoint: median survival time, dose: 100.0 mg/kg/injection, schedule: Q01DX009 (oral), vehicle: other",114 % of control
same,T/C,"endpoint: median survival time, dose: 111.1 mg/kg/injection, schedule: Q01DX009 (ip), vehicle: clinical formulation",93 % of control
same,T/C,"endpoint: median survival time, dose: 111.1 mg/kg/injection, schedule: Q01DX009 (oral), vehicle: clinical formulation",121 % of control
same,T/C,"endpoint: median survival time, dose: 125.0 mg/kg/injection, schedule: Q01DX001 (ip), vehicle: clinical formulation",170 % of control
same,T/C,"endpoint: median survival time, dose: 200.0 mg/kg/injection, schedule: Q01DX001 (iv), vehicle: other",104 % of control
same,T/C,"endpoint: median survival time, dose: 200.0 mg/kg/injection, schedule: Q01DX001 (oral), vehicle: other",98 % of control
same,T/C,"endpoint: median survival time, dose: 200.0 mg/kg/injection, schedule: Q01DX005 (ip), vehicle: other",109 % of control
same,T/C,"endpoint: median survival time, dose: 200.0 mg/kg/injection, schedule: Q01DX005 (iv), vehicle: other",158 % of control
same,T/C,"endpoint: median survival time, dose: 200.0 mg/kg/injection, schedule: Q01DX005 (oral), vehicle: other",110 % of control
same,T/C,"endpoint: median survival time, dose: 400.0 mg/kg/injection, schedule: Q01DX001 (iv), vehicle: other",101 % of control
same,T/C,"endpoint: median survival time, dose: 400.0 mg/kg/injection, schedule: Q01DX001 (oral), vehicle: other",98 % of control
same,T/C,"endpoint: median survival time, dose: 400.0 mg/kg/injection, schedule: Q01DX005 (oral), vehicle: other",112 % of control
same,T/C,"endpoint: median survival time, dose: 444.4 mg/kg/injection, schedule: Q01DX009 (oral), vehicle: clinical formulation",158 % of control
same,T/C,"endpoint: median survival time, dose: 800.0 mg/kg/injection, schedule: Q01DX001 (oral), vehicle: other",102 % of control
same,T/C,"endpoint: median survival time, dose: 888.8 mg/kg/injection, schedule: Q01DX009 (oral), vehicle: clinical formulation",184 % of control
